From patent US12264173B2 (GILEAD SCIENCES, INC., priority 2020, dated 2025)

Experiments:
Assay type in all cases: cell-based
[1] = system: hMPV strain CAN97-82 (B1); experiment: hMPV B1 EC50 in LLC-MK2 cells; settings: read-out: hMPVB1 LLC-MK2 EC50
Description: (§1) LLC-MK2 cells were seeded in 24-well plates at 90% confluence in MEM+10% FBS. Plates were washed with PBS and 500 μL of hMPV (strains CAN99-81 (gr. A1), CAN97-83 (gr. A2), CAN97-82 (B1) or CAN98-75 (gr. B2), containing 40 PFU/mL with the different dilutions of the 4 compounds were added on the cells for 1 h 30 min at 37° C., 5% CO2. After the adsorption period, the medium was removed and cells were washed with PBS. An overlay of Opti-MEM 2×+methycellulose 1.6% (1:1) containing the same concentrations of compounds as in the adsorption period was added to the wells. A positive control consisting of ribavirin was also tested with concentrations ranging from 1 μM to 100 μM. The plates were incubated at 37° C., 5% CO2 for 3-5 days. After the incubation period, the cells were fixed with 7% formalin for 1 h at room temperature. hMPV titers were determined using a Mab specific for the F protein (clone hMPV24, ABD Serotec, Inc.) diluted 1/10 000 and a second anti-mouse IgG HRP antibody (GeneScriptCorp) diluted 1/2500. Finally, KPL True Blue was used to reveal infected cells.

[2] = system: hMPV strain CAN98-75 (gr. B2); experiment: hMPV B2 EC50 in LLC-MK2 cells; settings: read-out: hMPVB2 LLC-MK2 EC50
Description: as §1

[3] = system: hMPV strain CAN99-81 (gr. A1); experiment: hMPV A1 EC50 in LLC-MK2 cells; settings: read-out: hMPVA1 LLC-MK2 EC50
Description: as §1

[4] = system: hMPV strain CAN97-83 (gr. A2); experiment: hMPV A2 EC50 in LLC-MK2 cells; settings: read-out: hMPVA2 LLC-MK2 EC50
Description: as §1

Work on `COC(=O)[C@H](C)N[P@](=O)(OC[C@@]1(C#N)O[C@@H](c2ccc3c(N)ncnn23)[C@H](OC(=O)C(C)C)[C@@H]1OC(=O)C(C)C)Oc1ccccc1` (single isomer, unassigned) [Example 140] yielded an EC50 [1] of 210 nM, an EC50 [2] of 230 nM and an EC50 [3] of 160 nM. It also gave an EC50 [4] of 190 nM.
